This is an account of results in US6528516B1, “Methods for reducing intraocular pressure using A3 adenosine receptor antagonists” (Trustees of the University of Pennsylvania, The Center for …, priority 1998, dated 2003).

For the experiment, the system named is bovine pigmented ciliary epithelial (PE) cells. Description: Cell volume (shrinkage) of PE cells in isoosmotic suspension, Coulter Counter. In kind it is cell-based. Particulars: for effect of agent on shrinkage in the presence of ATP / shrinkage by agent in the presence or absence of ATP: 10 μM agent; for effect of estradiol on shrinkage produced by ATP and tamoxifen: 100 nM estradiol; for effect of estradiol on cell volume in the absence of tamoxifen: 100 nM, FIG. 16B; for effect of PKC modulator on cell volume in the presence of ATP: 0.3 μM staurosporine, 250 μM DiC8; for shrinkage by agent in the presence or absence of ATP: with or without 100 μM ATP.

[1] abbreviates: 100 μM ATP + 10 μM agent, FIG. 13A.
[2] abbreviates: 10 μM trifluoperazine alone, FIG. 14B.
Setting [3] is: 100 μM ATP + 10 μM TMX + 10 μM trifluoperazine, FIG. 14A.
The mark [4] stands for this setting: 100 μM ATP + 10 μM agent, FIG. 14A.
Where [5] appears, read: 100 μM ATP + 10 μM trifluoperazine, FIG. 14B.

“Also recorded” adds a separate entry of the source.

With `NCCc1c[nH]cn1` [histamine], under “100 μM ATP, FIG. 13A”, the “effect of agent on shrinkage in the presence of ATP” value is recorded as “did not enhance the volumetric response”. Under setting [1], the “steady-state cell volume (v∞)” value is reported as 97.4±0.5% and the “time constant of the shrinkage (τ)” value is 21.0 ± 8.0 min.

Regarding `C[C@]12CC[C@@H]3c4ccc(O)cc4CC[C@H]3[C@@H]1CC[C@@H]2O` [17β-estradiol], the “effect of estradiol on cell volume in the absence of tamoxifen” value is recorded as “very small effects”. The “effect of estradiol together with ATP on cell volume” value (100 nM 17β-estradiol, 100 μM ATP) is “small and slow shrinkage”. Further, under “100 μM ATP, 10 μM tamoxifen”, the “effect of estradiol on shrinkage produced by ATP and tamoxifen” value is on record as “reduced; also recorded: significantly inhibited”.

As for `CN[C@@H]1C[C@H]2O[C@@](C)([C@@H]1OC)n1c3ccccc3c3c4c(c5c6ccccc6n2c5c31)C(=O)NC4` [staurosporine], the “effect of PKC modulator on cell volume in the presence of ATP” value (100 μM ATP) is recorded as “small, insignificant shrinkage”.

As for `C[C@]12CC[C@@H]3c4ccc(O)cc4CC[C@H]3[C@@H]1CC[C@H]2O` [17α-estradiol], the “effect of estradiol on cell volume in the absence of tamoxifen” value is on record as “very small effects”. Besides, the “effect of estradiol on shrinkage produced by ATP and tamoxifen” value (100 μM ATP, 10 μM tamoxifen) is “no significant effect”.

Turning to `CN1CCN(CCCN2c3ccccc3Sc3ccc(C(F)(F)F)cc32)CC1` [trifluoperazine], the “shrinkage by agent in the presence or absence of ATP” value was “the same, whether or not ATP was present; also recorded: reduced cell volume on their own”. Further, under setting [2], the “steady-state cell volume (v∞)” value is recorded as 96.8±0.2% and the “time constant of the shrinkage (τ)” value came out at 0.9 ± 0.6 min. For the same molecule, the “effect of trifluoperazine on shrinkage produced by ATP alone” value (10 μM trifluoperazine, 100 μM ATP) is on record as “enhanced the shrinkage produced by ATP alone”. Moreover, under “10 μM trifluoperazine, 100 μM ATP, 10 μM tamoxifen”, the “effect of trifluoperazine on the response to ATP+TMX” value is listed as “reduced the response”. In addition, under setting [3], the “steady-state cell volume (v∞)” value was 95.7±0.4% and the “time constant of the shrinkage (τ)” value came out at 3.9 ± 1.2 min. Further, under setting [4], the “steady-state cell volume (v∞)” value worked out at 96.2±0.3% and the “time constant of the shrinkage (τ)” value amounted to 6.8 ± 1.4 min. Moreover, under setting [5], the “steady-state cell volume (v∞)” value came to 96.7±0.3% and the “time constant of the shrinkage (τ)” value came to 0.5 ± 1.5 min.

With `C[N+](C)(C)CCOC(N)=O` [carbachol], the “shrinkage by agent in the presence or absence of ATP” value is “nearly the same degree of shrinkage in the presence or absence of 100 μM ATP; also recorded: reduced cell volume on their own”. The “effect of agent on shrinkage in the presence of ATP” value (100 μM ATP, FIG. 13A) is recorded as “did trigger a prompt shrinkage; also recorded: enhanced shrinkage”. Under setting [1], the “steady-state cell volume (v∞)” value worked out at 94.2±0.4% and the “time constant of the shrinkage (τ)” value was 5.6 ± 1.2 min.

For the molecule `O=S(=O)(O)c1cc(N=C=S)ccc1C=Cc1ccc(N=C=S)cc1S(=O)(=O)O` [DIDS, 4,4′-diisothiocyano-2,2′-disulfonic acid], the “effect of Cl− channel blocker on ATP, tamoxifen-activated shrinkage” value (DIDS 500 μM, NPPB 100 μM) is on record as “inhibited the volume reduction; also recorded: reduced”.

As for `CCCCCCCC(=O)OCC(CO)OC(=O)CCCCCCC` (centres unmarked) [DiC8], the “effect of PKC modulator on cell volume in the presence of ATP” value (100 μM ATP) was “no significant effect”.
